This is an account of results in patent EP0908457B1, “3-(1,2-benzisothiazol- and isoxazol-5-Y1)-2,4(1H,3H)-pyrimidinedione or thione and 3-(1,2-benzisothiazol- and isoxazol-5-y1)-4(3H)-pyrimidinone or thione herbicidal agents” (BASF AKTIENGESELLSCHAFT, priority 1997, dated 1999).

SMILES strings stand for the structures.

For one data set, the system named is Sagittaria pygmaea, L. The data set can be described thus: Preemergence weed control under flooded paddy conditions, SAGPY (Arrowhead (Pygmaea)). The format is in vivo. The conditions noted are these: preemergence, flooded paddy, rated three to four weeks after treatment.
The subject of data set [1] is Echinochloa oryzoides (Ard.) Fritsch. The data set can be described thus: Preemergence weed control under flooded paddy conditions, ECHORC (Watergrass (Calif.)). Format: in vivo. The conditions noted are these: preemergence, flooded paddy, rated three to four weeks after treatment.
Data set [2] deals with Monochoria vaginalis, Presl. Kind of data set: Preemergence weed control under flooded paddy conditions, MOOVA (Monochoria). Format: in vivo. The conditions noted are these: preemergence, flooded paddy, rated three to four weeks after treatment.
The test system of data set [3] is Cyperus serotinus, Rottb. The data set can be described thus: Preemergence weed control under flooded paddy conditions, CYPSE (Flatsedge). The settings on record: preemergence, rated three to four weeks after treatment. Format: in vivo.
For data set [4], the system named is Oryza sativa, (L.) Tebonnet. Kind of data set: Rice tolerance to post-transplant applications under flooded paddy conditions (Example 187), ORYSAT (Rice, Tebonnet). The conditions noted are these: rated three to four weeks after treatment.
For the next data set, the system named is Cyperus iria. The data set can be described thus: Preemergence weed control under flooded paddy conditions, CYPIR (Rice Flatsedge). Format: in vivo. The settings on record: preemergence, flooded paddy, rated three to four weeks after treatment.

As for `Cn1c(C(F)(F)F)cc(=O)n(-c2ccc3snc(C(C)(C)C(=O)OCc4ccccn4)c3c2)c1=O` [Example 510, 1,2-Benzisothiazole-3-acetic acid, 5-[3,6-dihydro-3-methyl-2,6-dioxo-4-(trifluoromethyl)-1(2H)-pyrimidinyl]-alpha,alpha-dimethyl-, 2-pyridylmethyl ester], the SAGPY herbicidal rating in the data set with Sagittaria pygmaea, L. (0.0320 kg/ha) is listed as 3.0; in the data set with Sagittaria pygmaea, L. (0.0620 kg/ha), 4.0; in the data set with Sagittaria pygmaea, L. (0.1250 kg/ha) it was 5.0; with Sagittaria pygmaea, L. (0.2500 kg/ha), 6.0. In addition, the ECHORC herbicidal rating in data set [1] (0.0320 kg/ha), in data set [1] (0.0620 kg/ha), in data set [1] (0.1250 kg/ha) and in data set [1] (0.2500 kg/ha) was 9.0 in each case. The MOOVA herbicidal rating in data set [2] (0.0320 kg/ha) is 6.0; in data set [2] (0.0620 kg/ha) it was 7.0; in data set [2] (0.1250 kg/ha) it was 9.0; in data set [2] (0.2500 kg/ha), 9.0. In addition, the CYPSE herbicidal rating in data set [3] (0.0320 kg/ha) is recorded as 0.0; in data set [3] (0.0620 kg/ha), 0.0; in data set [3] (0.1250 kg/ha), 3.0; in data set [3] (0.2500 kg/ha) it was 5.0. The “ORYSAT herbicidal rating (rice tolerance)” value in data set [4] (0.0320 kg/ha) stood at 0.0; in data set [4] (0.0620 kg/ha), 2.0; in data set [4] (0.1250 kg/ha), 4.0; in data set [4] (0.2500 kg/ha), 8.0. For the same molecule, the CYPIR herbicidal rating with Cyperus iria (0.0320 kg/ha) was 0.0; in the data set on Cyperus iria (0.0620 kg/ha) it was 3.0; in the data set on Cyperus iria (0.1250 kg/ha), 7.0; with Cyperus iria (0.2500 kg/ha), 8.0.
As to `Cc1ccc(OC(C)(C)C(=O)OC(C)(C)C)c(-c2nsc3ccc(-n4c(=O)cc(C(F)(F)F)n(C)c4=O)cc23)c1` [Example 514, Propionic acid, 2-{{2-{5-[3,6-dihydro-3-methyl-2,6-dioxo-4-(trifluoromethyl)-1(2H)-pyrimidinyl]-1,2-benzisothiazol-3-yl}-p-tolyl}oxy}-2-methyl-, tert-butyl ester], the SAGPY herbicidal rating in the data set with Sagittaria pygmaea, L. (0.0320 kg/ha) is 0.0; in the data set on Sagittaria pygmaea, L. (0.0620 kg/ha) it was 0.0; with Sagittaria pygmaea, L. (0.1250 kg/ha) it was 0.0; with Sagittaria pygmaea, L. (0.2500 kg/ha) it was 0.0. Moreover, the ECHORC herbicidal rating is given as 0.0 in data set [1] (0.0320 kg/ha), 1.0 in data set [1] (0.0620 kg/ha), 2.0 in data set [1] (0.1250 kg/ha) and 8.0 in data set [1] (0.2500 kg/ha). The MOOVA herbicidal rating in data set [2] (0.0320 kg/ha), in data set [2] (0.0620 kg/ha), in data set [2] (0.1250 kg/ha) and in data set [2] (0.2500 kg/ha) was 9.0 each time. Moreover, the CYPSE herbicidal rating in data set [3] (0.0320 kg/ha), in data set [3] (0.0620 kg/ha), in data set [3] (0.1250 kg/ha) and in data set [3] (0.2500 kg/ha) was 0.0 throughout. Moreover, the “ORYSAT herbicidal rating (rice tolerance)” value in data set [4] (0.0320 kg/ha) is 2.0; in data set [4] (0.0620 kg/ha) it was 2.0; in data set [4] (0.1250 kg/ha) it was 1.0; in data set [4] (0.2500 kg/ha), 4.0. For the same molecule, the CYPIR herbicidal rating in the data set on Cyperus iria (0.0320 kg/ha) worked out at 0.0; in the data set on Cyperus iria (0.0620 kg/ha), 0.0; with Cyperus iria (0.1250 kg/ha), 2.0; in the data set on Cyperus iria (0.2500 kg/ha), 7.0.
